Series [1] has as its target T1, UT receptor (Homo sapiens, UniProt Q9UKP6).
T1 construct: SNAP-tag; expressed in transfected cells; host or cells: 293A8 (HEK293A stably transfected with the UT receptor); inferred, the calcium-assay paragraph names no cells
T1 sequence (Q9UKP6 1-389): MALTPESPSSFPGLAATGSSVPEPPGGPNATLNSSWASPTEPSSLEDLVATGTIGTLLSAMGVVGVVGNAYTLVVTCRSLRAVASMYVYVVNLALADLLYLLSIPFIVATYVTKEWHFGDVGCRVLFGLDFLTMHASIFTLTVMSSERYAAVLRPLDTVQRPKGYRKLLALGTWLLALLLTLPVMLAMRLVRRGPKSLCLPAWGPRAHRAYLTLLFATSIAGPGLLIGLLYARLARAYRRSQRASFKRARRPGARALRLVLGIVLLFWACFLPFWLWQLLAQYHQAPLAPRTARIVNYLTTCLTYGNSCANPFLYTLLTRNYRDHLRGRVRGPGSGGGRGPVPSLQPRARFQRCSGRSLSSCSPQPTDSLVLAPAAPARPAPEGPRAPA
The series can be described thus: luciferase β-arrestin recruitment-based assay. The series is classed as cell-based. The method, then:
(§1) HTLA cells (a HEK293 cell line stably expressing a tTA-dependent luciferase reporter and a β-arrestin2-TEV fusion gene) were a gift from the laboratory of R. Axel (he has given us permission to distribute them) and are maintained in DMEM supplemented with 10% FBS, 100 U/mL penicillin and 100 μg/mL streptomycin, 2 μg/mL puromycin and 100 μg/mL hygromycin B. HepG2 cells (C5 passage, human hepatoma cell line) were purchased from the National Platform of Experimental Cell Resources for Sci-Tech, Chinese Academy of Medical Sciences (Beijing, China), and 293A8 cells were the cell line HEK293A stably transfected with the UT receptor in our laboratory. HepG2 and 293A8 cells were grown in high glucose (25 mmol/L) Dulbecco’s modified Eagle’s medium (DMEM, Gibco, CA, USA) supplemented with 10% fetal bovine serum (FBS, Gibco, CA, USA), 100 U/mL penicillin and 100 µg/mL streptomycin solution (Solarbio, Beijing, China). Cells were cultured in a standard humidified incubator at 37 °C under a 5% CO2 atmosphere. The media were changed every 2 days. Subcultures were performed at a ratio of 1:3 when cells were approximately 75–85% confluent.
The β-arrestin recruitment-based experiments were performed according to previous reports with slight modifications. In brief, the UT receptor plasmid was transfected into HTLA cells with the transfection reagent PEI when the cell confluence reached approximately 80%. Transfected cells were seeded in 96-well plates at a density of 1.5 × 10^5 cells/well. After 24 h, the cells were treated with compounds diluted to the specified concentration using 10% FBS DMEM. Following the next 24 h incubation with compounds, the medium was removed and Bright-GloTM (Promega, Madison, WI, USA) reagent was added immediately. Then, the activity of firefly luciferase luminescence (RLUF) was measured using a SpectraMax M5 microplate reader (Molecular devices, LLC., San Jose, CA, USA).

In series [2] the target is T1, UT receptor. Description: intracellular calcium mobilization (Fluo-8 calcium assay). To be noted: for agonist behaviour in calcium assay: in words. The class given is cell-based. Here is the method:
as §1
Measurement of intracellular calcium mobilization was performed using Fluo-8 Calcium Assay Kit (Applygen, Beijing, China) following the manufacturer’s instructions.

Series [3] has as its system HepG2 cells. The series can be described thus: glucose consumption. The series is classed as cell-based, human. Here is the method: as §1
(§2) Glucose consumption detection was performed as described previously. In brief, HepG2 cells in 96-well plates at a density of 8000 cells/well were treated with compounds at 37 °C, and 5% CO2. After the indicated duration, the media from cultured cells were taken for glucose and lactic acid detection. The glucose levels were detected by a blood-glucose kit from Biosino Biotechnology (Beijing, China). The amount of glucose consumption was calculated by subtracting the initial glucose level from the remaining glucose in the wells. The lactate content was measured using the lactic acid assay kit (Nanjing Jiancheng Bioengineering Institute, Nanjing, China) according to the manufacturer’s instructions.

Series [4] has as its system HepG2 cells. The series can be described thus: lactic acid release. The class given is cell-based, human. The method, then:
as §1, §2

Series [5] has as its system HepG2 cells. The series can be described thus: cell viability (CCK-8). The class given is cell-based, human. Conditions: 24 h. Here is the method:
as §1
Cell viability was detected by Cell Counting Kit-8 (CCK-8) per the instructions of the technical manual (Dojindo, Kumamoto, Japan). In brief, the cells were seeded in a 96-well plate and incubated overnight in the cell culture incubator. After the cells were treated with compounds for a certain period, the CCK-8 test solution was added at 1/10 of the total volume. Then, the plates were incubated in the incubator for 2 h, and the absorbance at 450 nm was measured using a SpectraMax M5 microplate reader (Molecular Devices, LLC, San Jose, CA, USA).

The conditions of series [6]: chronic administration, cited from earlier work.
On the set-up of series [7]: method as in PMID 19696412. To be noted: cited from earlier work.
The mark [8] stands for this setting: HTLA cells transfected with UT receptor plasmid.
Setting [9] is: HTLA cells transfected with UT receptor plasmid, 24 h incubation, read-out: β-arrestin recruitment-based assay EC50.
Where [10] appears, read: intracellular calcium mobilization.
Setting [11] is: intracellular calcium mobilization, fluorescence-based, read-out: Calcium assay EC50.

Structures are written as SMILES. “Also recorded” adds a separate entry of the source.

Turning to `C=CC(C)(C)c1c(O)cc(O)c2c(=O)c(O)c(-c3cc(O)c4c(c3)C=CC(C)(C)O4)oc12` [Compound 1], the “β-arrestin recruitment-based assay Emax” value at UT receptor [1] (setting [8]) was found to be 4.85. The half-maximal effective concentration (EC50) was found to be 0.0897 µM on UT receptor [1] (setting [9]) and 7.39 µM on UT receptor [2] (setting [11]). Besides, the “agonist behaviour in calcium assay” value on UT receptor [2] was “full potent agonist”. The “Calcium assay Emax” value on UT receptor [2] (setting [10]) turned out to be 5.62. Besides, the glucose consumption entry in the series with HepG2 cells [3] (48 h total glucose consumption) is “significantly accelerate 48 h total glucose consumption; also recorded: promote glucose utilization”. Further, in the series on HepG2 cells [4], the lactic acid release entry is recorded as “reduced lactic acid production”. For the same molecule, the cell viability entry with HepG2 cells [5] was “did not affect; also recorded: without obvious cytotoxic effects”.
Regarding `O=C(c1ccc([N+](=O)[O-])o1)N1CCN(c2ccc([N+](=O)[O-])cc2)CC1` [Compound 2], the EC50 amounted to 0.037 µM on UT receptor [1] and 10.2 µM on UT receptor [2]. In addition, the “β-arrestin recruitment-based assay Emax” value on UT receptor [1] (setting [8]) is recorded as 2.40. The “Calcium assay Emax” value on UT receptor [2] (setting [10]) is reported as 4.08. Moreover, in the series on HepG2 cells [3] (48 h total glucose consumption), the glucose consumption entry was “no significant differences”. The lactic acid release entry in the series on HepG2 cells [4] is listed as “no significant differences”. For the same molecule, the cell viability result in the series on HepG2 cells [5] is on record as “no significant differences”.
As to `O=C(NCCc1cccs1)C1(c2ccccc2)CCCC1` [Compound 3], at UT receptor [1] (setting [8]), the “β-arrestin recruitment-based assay Emax” value was determined as 3.26. Also, the EC50 on UT receptor [1] (setting [9]) turned out to be 0.0448 µM; on UT receptor [2] (setting [11]), 10.6 µM. The “agonist behaviour in calcium assay” value on UT receptor [2] is “weak activity”. The “Calcium assay Emax” value at UT receptor [2] (setting [10]) is on record as 2.37. For the same molecule, in the series on HepG2 cells [3] (at higher concentrations (10^−6 M, 10^−5 M)), the glucose consumption result is listed as “significantly increased glucose consumption”. In the series with HepG2 cells [4], the lactic acid release result is “reduced lactic acid production”. Besides, the cell viability entry in the series with HepG2 cells [5] was “significantly reduced cell viability”.
For `CC(C)[C@H](NC(=O)[C@@H]1CSSC[C@H](NC(=O)[C@H](CC(=O)O)NC(=O)[C@@H]2CCCN2C(=O)[C@@H](NC(=O)[C@@H](N)CCC(=O)O)[C@@H](C)O)C(=O)N[C@@H](Cc2ccccc2)C(=O)N[C@@H](Cc2c[nH]c3ccccc23)C(=O)N[C@@H](CCCCN)C(=O)N[C@@H](Cc2ccc(O)cc2)C(=O)N1)C(=O)O` [U-II, urotensin-II], the “β-arrestin recruitment-based assay Emax” value on UT receptor [1] (setting [8]) is 8.32. Further, at UT receptor [2] (setting [10]), the “Calcium assay Emax” value was found to be 5.27. Moreover, the whole-body glucose tolerance entry in series [6] (high-fat-diet-fed mice) is “improves whole-body glucose tolerance”. Also, the glucose tolerance result in series [6] (obese mice) is listed as “improved glucose tolerance”. Further, the “glucose consumption in vitro” value in series [7] was “increases glucose consumption”.

Source of the values: publication PMC9788431, “Combination of Docking-Based and Pharmacophore-Based Virtual Screening Identifies Novel Agonists That Target the Urotensin Receptor” (Molecules, 2022).
